Results reported in patent US8202834B2, “Fat regulation” (FibroGen, Inc., priority 2002, dated 2012).

Legend:
HIF-1α [1] = assay: HIF-1α in nuclear fractions, TRANSAM HIF-1 ELISA; assay type: cell-based, human; details: 293A and Hep3B cells, vs vehicle; FIG. 8B
Excerpt: (§1) Compounds of the present invention for use in the present methods stabilize HIFα, inhibit HIF hydroxylase activity and/or HIFα hydroxylation, etc. Thus, compounds can be identified, e.g., by their ability to stabilize HIFα. Stabilization of HIFα using compounds and methods of the present invention was examined as follows. Human cells derived from adenovirus-transformed fetal kidney epithelium (293A), cervical epithelial adenocarcinoma (HeLa), hepatocellular carcinoma (Hep3B), squamous carcinoma (SSC-25), and lung fibroblast (HLF) tissues (see, e.g., American Type Culture Collection, Manassas Va.; and Qbiogene, Carlsbad Calif.) were separately seeded into 100 mm culture dishes and grown at 37° C., 20% O2, 5% CO2 in media as follows: HeLa cells in Dulbecco's Modification of Eagle's Medium (DMEM), 2% fetal bovine serum (FBS); HLF cells in DMEM, 10% FBS; 293A cells in DMEM, 5% FBS; and Hep3B cells in Minimal Essential Medium (MEM), Earle's BSS (Mediatech Inc., Herndon Va.), 2 mM L-glutamine, 0.1 mM non-essential amino acids, 1 mM sodium pyruvate, 10% FBS. When cell layers reached confluence, the media was replaced with OPTI-MEM media (Invitrogen Life Technologies, Carlsbad Calif.) and cell layers were incubated for approximately 24 hours in 20% O2, 5% CO2 at 37° C. A compound of the invention (compound B, D, F, G, or H) or vehicle control (0.5 to 1% DMSO) was then added to existing medium, and incubation was continued overnight.
Alternatively, nuclear fractions were prepared using a nuclear extract kit (Active Motif, Carlsbad Calif.) and were analyzed for HIF-1α using a TRANSAM HIF-1 ELISA kit (Active Motif) according to the manufacturer's instructions.

[2] = Diet-induced obesity model, high-fat diet, 28 days; assay type: in vivo, C57BL/6J mice; details: 75 mg/kg/day oral gavage, vs high-fat vehicle, p<0.05, FIG. 6A
Description: The effect of the present compounds and methods on fat regulation, e.g., fat uptake and storage, etc., and on regulation of body weight was analyzed as follows. C57Bl/6J mice fed a high-fat diet develop severe obesity, hyperglycemia, and hyperinsulinemia, and are a model of diet-induced obesity, Type 2 diabetes, and impaired glucose tolerance. Forty male C57BL/6J mice obtained from The Jackson Laboratory (Bar Harbor Me.) were divided into the following experimental groups: Group 1: vehicle control animals fed standard mouse chow (n=10); Group 2: vehicle control animals fed high-fat mouse chow (45% fat from Research Diets) (n=10); Group 3: animals fed high-fat mouse chow and administered 75 mg/kg/day compound E by oral gavage (n=10); Group 4: animals fed high-fat mouse chow and administered 75 mg/kg/day compound A by oral gavage (n=10). The feeding regimen was continued for 28 days with weekly measurement of body weight. Animals were then sacrificed and their organs and fat pads were harvested and weighed.

GluT-1 [3] = assay: GluT-1 protein levels in H9c2 cells, Western blot; assay type: cell-based, rat; details: H9c2 cells, 5, 10 and 20 μM, 16 hours; FIG. 9A
Description: (§2) As the compounds and methods of the invention regulate fat metabolism, which is tightly coordinated with glucose regulation, the effect of compounds and methods on glucose uptake and metabolism was analyzed. Human SSC-25 (squamous cell carcinoma) or rat H9c2 (ventricular cardiomyocyte) cells were grown to confluence in 100 mm culture dishes at 37° C., 10% CO2 in DMEM with 10% fetal calf serum. Cells were then washed twice with PBS and incubated with vehicle control, compound D (10 and 25 μM), or compound C (5, 10, and 20 μM) for 16 hours. Plates were placed on ice, culture supernatant was removed, and lysis buffer-1 (LB-1: 10 mM Tris pH 7.4, 1 mM EDTA, 150 mM sodium chloride, 0.5% IGEPAL) was added. Cells were harvested by scraping, incubated for 15 minutes on ice, and then centrifuged at 3,000×g for 5 minutes at 4° C. The supernatant, which represents the cytosolic fraction, was collected and cytosolic proteins were separated under reducing conditions using SDS-polyacrylamide gel electrophoresis (SDS-PAGE) with equal amounts of protein loaded per lane.
(§3) SDS-PAGE was conducted at 150 V for 2 hours, after which the proteins were transferred to a PVDF membrane at 400 mA for 1.5 hours at 4° C. […]

GluT-1 [4] = assay: GluT-1 protein levels in SCC-25 cells, Western blot; assay type: cell-based, human; details: 10 and 25 μM, 16 hours, FIG. 9A
Description: as §2, §3

HIF-1α [5] = assay: HIFα stabilization in cells, nuclear fraction Western blot; assay type: cell-based, human; details: various cell types, overnight incubation; FIG. 8A
Excerpt: as §1, with “A compound of the invention (compound B, D, F, G, or H) or vehicle control (0.5 to 1% DMSO) was then added to existing medium, and incubation was continued overnight.” left out

PPAR-γ = PPAR-γ expression in tissue after 4 days of oral dosing; assay type: in vivo, mouse; details: cardiac tissue; oral gavage once per day for 4 days; FIG. 3C
Description: (§4) To further investigate the effect of the methods and compounds of the present invention on expression of adipogenic factors, twelve Swiss Webster male mice (30-32 g) obtained from Simonsen, Inc. were treated by oral gavage once per day for 4 days with 4 ml/kg volume of either 0.5% CMC (0 mg/kg/day), 25 mg/ml compound D in 0.5% CMC (100 mg/kg/day), or 7.5 mg/ml and 25 mg/ml of compound B in 0.5% CMC (30 and 100 mg/kg/day, respectively). Four hours after the final dose, animals were anesthetized, sacrificed, and approximately 150 mg of adipose, heart, kidney, liver, lung, and muscle were isolated and stored in RNALATER solution (Ambion) at −20° C. RNA isolation and gene expression analysis was performed as described in Example 3 above.

DEC1/Stra13 = DEC1/Stra13 expression in tissues after 4 days of oral dosing; assay type: in vivo, mouse; details: adipose, kidney, liver and muscle; oral gavage once per day for 4 days, 4 h after final dose; FIG. 3B
Description: as §4

O=C(O)CNC(=O)c1ncccc1O [compound G, [(3-Hydroxy-pyridine-2-carbonyl)-amino]-acetic acid]
stabilization and accumulation of HIFα (HIF-1α [1]): stabilization and accumulation of HIFα

COc1ccc2c(O)c(C(=O)NCC(=O)O)nc(Cl)c2c1 [compound E, [(1-Chloro-4-hydroxy-7-methoxy-isoquinoline-3-carbonyl)-amino]-acetic acid]
weight gain [2]: significantly less weight gain

O=C(O)CNC(=O)c1ncc2cc(Oc3ccccc3)ccc2c1O [compound C, [(4-Hydroxy-7-phenoxy-isoquinoline-3-carbonyl)-amino]-acetic acid]
protein levels of GluT-1 (GluT-1 [3]): increased protein levels of GluT-1

O=C(O)c1c[nH]c2c(ccc3cccnc32)c1=O [compound D, 4-Oxo-1,4-dihydro-[1,10]phenanthroline-3-carboxylic acid]
protein levels of GluT-1 (GluT-1 [4]): increased protein levels of GluT-1 | HIFα stabilization (HIF-1α [5]): stabilized HIFα | PPAR-γ expression (PPAR-γ): decreased PPAR-γ expression | DEC1/Stra13 expression (DEC1/Stra13): increased DEC1/Stra13 expression

CC(C)Oc1ccc2nc(C(=O)NCC(=O)O)c(O)cc2c1 [compound F, [(3-Hydroxy-6-isopropoxy-quinoline-2-carbonyl)-amino]-acetic acid]
stabilization and accumulation of HIFα (HIF-1α [1]): stabilization and accumulation of HIFα

COC(=O)CNC(=O)c1nc(Cl)c2cc(OCc3ccccc3)ccc2c1O [compound H, [(7-Benzyloxy-1-chloro-4-hydroxy-isoquinoline-3-carbonyl)-amino]-acetic acid methyl ester]
stabilization and accumulation of HIFα (HIF-1α [1]): stabilization and accumulation of HIFα

O=C(O)CNC(=O)c1nc2cc(Cl)ccc2cc1O [compound A, [(7-Chloro-3-hydroxy-quinoline-2-carbonyl)-amino]-acetic acid]
weight gain [2]: significantly less weight gain
